This is an account of results in the supplement of paper PMC7021759.

The subject of this experiment is SK-N-MM (SKNMM-MYCN, doxycycline-inducible MYCN). Briefly: area under dose-response curve (CellTiter-Glo viability normalised to plate controls) (AUC (arbitrary units)); higher = more loss of viability; extreme values may be limits of the assay. Put shortly: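 Compounds were pin-transferred as 10-point 1:3 dilution series (890-fold stock dilution) onto SK-N-MM cells with doxycycline-inducible MYCN, plated at 1250 cells/100 μL in 96-well plates and switched about 24 h after plating to medium with or without doxycycline two days before dosing. Dosing was repeated on day 4, and CellTiter-Glo luminescence was read 3 or 8 days after drugging. Area under the dose-response curve came from log2 signals normalised to the positive and negative controls on each plate.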
For orientation: In ATP-based viability assays light output follows the ATP content of the culture.

[1] abbreviates: MYCN induction (doxycycline): +doxycycline (MYCN induced), time after drugging: 3 days.
Where [2] appears, read: MYCN induction (doxycycline): +doxycycline (MYCN induced), time after drugging: 8 days.
Where [3] appears, read: MYCN induction (doxycycline): no doxycycline (MYCN not induced), time after drugging: 3 days.
[4] abbreviates: MYCN induction (doxycycline): no doxycycline (MYCN not induced), time after drugging: 8 days.

± gives the standard deviation of the averaged measurements.

For the compound `Cc1cnc(NC(=O)Nc2cc(Br)c(C)cc2OC[C@@H]2CNCCO2)cn1` [RABUSERTIB], the “area under dose-response curve” value under setting [1] turned out to be 89.5, the “area under dose-response curve” value under setting [2] worked out at 171, the “area under dose-response curve” value under setting [3] is 31 and the “area under dose-response curve” value under setting [4] was 95.5.
With `Cc1c(-c2c(-c3ccc(F)o3)sc3ncnc(O[C@H](Cc4ccccc4OCc4ccnn4CC(F)(F)F)C(=O)O)c23)ccc(OCCN2CCN(C)CC2)c1Cl`, the “area under dose-response curve” value under setting [2] is 7.67.
Take `O=C(NC1CCNCC1)c1n[nH]cc1NC(=O)c1c(Cl)cccc1Cl` [AT-7519]: the “area under dose-response curve” value turned out to be 48.9 under setting [1], 113 under setting [2] and 65.7 under setting [4].
In the case of `CCc1ccc(CCOc2ccc(CC3SC(=O)NC3=O)cc2)nc1` (stereo not given) [PIOGLITAZONE], the “area under dose-response curve” value by setting is: under setting [1], 0; under setting [2], 0; under setting [3], 0; under setting [4], 0.
With `COc1cc2nc(N3CCCN(C)CC3)nc(NC3CCN(Cc4ccccc4)CC3)c2cc1OC`, the “area under dose-response curve” value under setting [1] turned out to be 195, the “area under dose-response curve” value under setting [2] came out at 247, the “area under dose-response curve” value under setting [3] is 194 and the “area under dose-response curve” value under setting [4] is 243.
In the case of `CN(N=O)C(=O)N[C@H]1C(O)O[C@H](CO)[C@@H](O)[C@@H]1O` (mixture of isomers) [STREPTOZOSIN], the “area under dose-response curve” value is, setting by setting: under setting [1], 0; under setting [2], 0; under setting [3], 0.
As to `O=C(CCCCCCC(=O)Nc1ccccc1)NO` [VORINOSTAT], the “area under dose-response curve” value is, setting by setting: under setting [1], 78.4; under setting [2], 191; under setting [3], 58.2; under setting [4], 145.
For the compound `Nc1ccn([C@@H]2O[C@H](CO)[C@@H](O)[C@@H]2O)c(=O)n1` [CYTARABINE], the “area under dose-response curve” value under setting [1] was 40.4, the “area under dose-response curve” value under setting [2] was determined as 221, the “area under dose-response curve” value under setting [3] came to 33.7 and the “area under dose-response curve” value under setting [4] is 132.
As for `Nc1ncn([C@H]2C[C@H](O)[C@@H](CO)O2)c(=O)n1` [DECITABINE], the “area under dose-response curve” value was found to be 4.2 under setting [1], 169 under setting [2], 0.521 under setting [3] and 67.4 under setting [4].
As for `Cn1nccc1Nc1nccc(-c2ccn([C@H](CO)c3ccc(Cl)c(F)c3)c(=O)c2)n1` [GDC-0994], the “area under dose-response curve” value stood at 0 under setting [1], 0 under setting [2], 2.52 under setting [3] and 0 under setting [4].
Take `Cn1nnc2c(C(N)=O)ncn2c1=O` [TEMOZOLOMIDE]: the “area under dose-response curve” value worked out at 0 under setting [1], 0 under setting [2] and 0 under setting [3].
On to `C[C@H]1[C@H](OC(=O)CCC(=O)O)O[C@@H]2O[C@@]3(C)CC[C@H]4[C@H](C)CC[C@@H]1[C@@]24OO3` [ARTESUNATE], for which the “area under dose-response curve” value was found to be 46.2 under setting [1], 60 under setting [2], 25.7 under setting [3] and 25.9 under setting [4].
`CCOC(=O)CCNc1cc(N2CCc3ccccc3CC2)nc(-c2ccccn2)n1` [GSK-J4]: the “area under dose-response curve” value by setting is: under setting [1], 0.00103; under setting [2], 188; under setting [3], 61.4; under setting [4], 150.
For `COc1cc([C@@H]2c3cc4c(cc3[C@@H](O[C@@H]3O[C@@H]5CO[C@@H](C)O[C@H]5[C@H](O)[C@H]3O)[C@H]3COC(=O)[C@H]23)OCO4)cc(OC)c1O` [ETOPOSIDE], in that order: 42.1, 114, 18.8 and 43.1.
For the compound `CCOc1ccn(-c2ccc(F)cc2)c(=O)c1C(=O)Nc1ccc(Oc2ccnc(N)c2Cl)c(F)c1`, the “area under dose-response curve” value under setting [1] is 0, the “area under dose-response curve” value under setting [2] is 0, the “area under dose-response curve” value under setting [3] was determined as 4.76 and the “area under dose-response curve” value under setting [4] was found to be 74.3.
Take `CC(=O)c1ccc2c(c1)c1cc(C(C)=O)ccc1n2CCNC(C)C` [CBL-0137]: the “area under dose-response curve” value reads like this: under setting [1], 116; under setting [2], 176; under setting [3], 94.2; under setting [4], 172.
Turning to `CC1(C)CNc2cc(NC(=O)c3cccnc3NCc3ccncc3)ccc21` [MOTESANIB DIPHOSPHATE], the “area under dose-response curve” value came out at 0 under setting [1], 0 under setting [2], 5.62 under setting [3] and 0 under setting [4].
Consider `COc1cc2c(NC3CCN(C(C)C)CC3)nc(N3CCC(F)(F)CC3)nc2cc1OCCCN1CCCC1` [UNC0642], for which the “area under dose-response curve” value is 0 under setting [1], 203 under setting [2], 1.33 under setting [3] and 145 under setting [4].
For `CNC(=O)c1cc(Oc2ccc(NC(=O)Nc3ccc(Cl)c(C(F)(F)F)c3)cc2)ccn1` [SORAFENIB], in that order: 0, 0, 0 and 0.
For `CS(=O)(=O)CCNCc1ccc(-c2ccc3ncnc(Nc4ccc(OCc5cccc(F)c5)c(Cl)c4)c3c2)o1` [LAPATINIB] the same measures were 0, 0, 0 and 0.
For `Cc1cccc(-c2nn3c(c2-c2ccnc4ccc(C(N)=O)cc24)CCC3)n1` the same measures were 0, 0, 0 and 0.
Turning to `Nc1ccn([C@@H]2O[C@H](CO)[C@@H](O)C2(F)F)c(=O)n1` [GEMCITABINE], the “area under dose-response curve” value under setting [1] turned out to be 72.2, the “area under dose-response curve” value under setting [2] is 299, the “area under dose-response curve” value under setting [3] was determined as 43.4 and the “area under dose-response curve” value under setting [4] turned out to be 139.
In the case of `COc1cc2nccc(Oc3ccc(NC(=O)Nc4cc(C)on4)c(Cl)c3)c2cc1OC` [TIVOZANIB], the “area under dose-response curve” value reads like this: under setting [1], 0; under setting [2], 0; under setting [3], 0; under setting [4], 0.
In the case of `Cn1ncnc1[C@H]1c2n[nH]c(=O)c3cc(F)cc(c23)N[C@@H]1c1ccc(F)cc1` [TALAZOPARIB], the “area under dose-response curve” value is, setting by setting: under setting [1], 48.2 ± 12; under setting [2], 183 ± 40; under setting [3], 29.3 ± 20; under setting [4], 78.2 ± 25.
For `CCCS(=O)(=O)Nc1ccc(F)c(C(=O)c2c[nH]c3ncc(-c4ccc(Cl)cc4)cc23)c1F` [VEMURAFENIB] the same measures were 18.3, 24.6, 15.8 and 0.
In the case of `Cc1c2oc3c(C)ccc(C(=O)N[C@@H]4C(=O)N[C@H](C(C)C)C(=O)N5CCC[C@H]5C(=O)N(C)CC(=O)N(C)[C@@H](C(C)C)C(=O)O[C@@H]4C)c3nc-2c(C(=O)N[C@@H]2C(=O)N[C@H](C(C)C)C(=O)N3CCC[C@H]3C(=O)N(C)CC(=O)N(C)[C@@H](C(C)C)C(=O)O[C@@H]2C)c(N)c1=O` [DACTINOMYCIN], the “area under dose-response curve” value by setting is: under setting [1], 140; under setting [2], 282; under setting [3], 91.4; under setting [4], 210.
Regarding `CC1(C)CCC(CN2CCN(c3ccc(C(=O)NS(=O)(=O)c4ccc(NCC5CCOCC5)c([N+](=O)[O-])c4)c(Oc4cnc5[nH]ccc5c4)c3)CC2)=C(c2ccc(Cl)cc2)C1` [VENETOCLAX], the “area under dose-response curve” value came to 2.61 ± 3.7 under setting [2], 0 under setting [3] and 0 under setting [4].
As to `Cc1ccc(NC(=O)c2ccc(CN3CCN(C)CC3)cc2)cc1Nc1nc(-c2cccnc2)cs1` [MASITINIB], the “area under dose-response curve” value is, setting by setting: under setting [1], 0; under setting [2], 0; under setting [3], 0; under setting [4], 2.84.
With `CNC(=O)c1ccccc1Sc1ccc2c(/C=C/c3ccccn3)n[nH]c2c1` [AXITINIB], the “area under dose-response curve” value worked out at 52.9 under setting [1], 109 under setting [2], 32.4 under setting [3] and 69.7 under setting [4].
In the case of `Nc1nc(Cl)nc2c1ncn2[C@H]1C[C@H](O)[C@@H](CO)O1` [CLADRIBINE], the “area under dose-response curve” value came to 51.7 under setting [1], 225 under setting [2], 35.7 under setting [3] and 110 under setting [4].
On to `CC[C@@H]1C(=O)N(C)c2cnc(Nc3ccc(C(=O)N[C@H]4CC[C@H](N5CCN(CC6CC6)CC5)CC4)cc3OC)nc2N1C(C)C` [VOLASERTIB], for which the “area under dose-response curve” value reads like this: under setting [1], 87.9; under setting [2], 138; under setting [4], 75.2.
Consider `CCC(C)n1ncn(-c2ccc(N3CCN(c4ccc(OCC5COC(Cn6cncn6)(c6ccc(Cl)cc6Cl)O5)cc4)CC3)cc2)c1=O` (stereo not given) [ITRACONAZOLE], for which the “area under dose-response curve” value is, setting by setting: under setting [1], 13.1; under setting [2], 26.1; under setting [3], 11.4; under setting [4], 26.1.
